Consider three compounds from publication PMC12621043, “Un-LOK-ing a New Approach for Conformational Selective Targeting of STK10 (LOK)” (ACS Medicinal Chemistry Letters, 2025).

Structures are written as SMILES.

One test addresses T1, EPHA2 (EPHA2A) (Homo sapiens, UniProt P29317).
T1 construct: purchased in-house DSF kinase panel (SGC-style construct names; the trailing letter is the construct ID)
T1 sequence (P29317 596-900): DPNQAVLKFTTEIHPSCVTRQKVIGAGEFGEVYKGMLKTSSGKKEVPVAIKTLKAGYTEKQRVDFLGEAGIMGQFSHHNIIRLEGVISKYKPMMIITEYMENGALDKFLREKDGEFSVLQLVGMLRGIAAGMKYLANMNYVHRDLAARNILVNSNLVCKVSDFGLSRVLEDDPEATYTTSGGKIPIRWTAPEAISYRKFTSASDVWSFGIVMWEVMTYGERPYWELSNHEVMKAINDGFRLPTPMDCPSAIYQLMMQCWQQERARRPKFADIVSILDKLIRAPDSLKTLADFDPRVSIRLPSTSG
Nature of the test: DSF Tm panel. To be noted: 10 μM compound. It counts as binding.

A further test addresses T2, STK4 (STK4A) (Homo sapiens, UniProt Q13043).
T2 construct: purchased in-house DSF kinase panel (SGC-style construct names; the trailing letter is the construct ID)
T2 sequence (Q13043 1-311): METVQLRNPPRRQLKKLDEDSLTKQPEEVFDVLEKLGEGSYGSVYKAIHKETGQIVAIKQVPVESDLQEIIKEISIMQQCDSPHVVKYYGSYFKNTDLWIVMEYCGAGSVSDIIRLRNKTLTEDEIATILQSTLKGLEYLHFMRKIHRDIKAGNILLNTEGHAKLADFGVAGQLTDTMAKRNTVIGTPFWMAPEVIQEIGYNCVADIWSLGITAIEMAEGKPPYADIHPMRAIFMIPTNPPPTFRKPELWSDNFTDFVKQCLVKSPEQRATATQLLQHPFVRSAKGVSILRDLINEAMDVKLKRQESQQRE
Nature of the test: DSF Tm panel. It counts as binding. To be noted: 10 μM compound.

The test system of another test is CDC42BPAA. Put plainly: DSF Tm panel. It counts as binding. To be noted: 10 μM compound.
The target in another test is T3, FESA (Homo sapiens, UniProt P07332).
T3 construct: purchased in-house DSF kinase panel (SGC-style construct names; the trailing letter is the construct ID)
Nature of the test: DSF Tm panel. It counts as binding. The note with it: 10 μM compound.

The target of another test is T4, BMP2KA (Homo sapiens, UniProt Q9NSY1).
T4 construct: purchased in-house DSF kinase panel (SGC-style construct names; the trailing letter is the construct ID)
Put plainly: DSF Tm panel. The note with it: 10 μM compound. It counts as binding.

Another test has as its target T5, CDKL1A (Homo sapiens, UniProt Q00532).
T5 construct: purchased in-house DSF kinase panel (SGC-style construct names; the trailing letter is the construct ID)
Put plainly: DSF Tm panel. The note with it: 10 μM compound. It counts as binding.

The target in the next test is T6, MARK4A (Homo sapiens, UniProt Q96L34).
T6 construct: purchased in-house DSF kinase panel (SGC-style construct names; the trailing letter is the construct ID)
Nature of the test: DSF Tm panel. Format: binding. To be noted: 10 μM compound.

For the next test, the target named is T7, MARK3A (Homo sapiens, UniProt P27448).
T7 construct: purchased in-house DSF kinase panel (SGC-style construct names; the trailing letter is the construct ID)
Nature of the test: DSF Tm panel. It counts as binding. The note with it: 10 μM compound.

The next test has as its target T8, DCAMKL1A (Homo sapiens, UniProt O15075).
T8 construct: purchased in-house DSF kinase panel (SGC-style construct names; the trailing letter is the construct ID)
T8 sequence (O15075 372-649): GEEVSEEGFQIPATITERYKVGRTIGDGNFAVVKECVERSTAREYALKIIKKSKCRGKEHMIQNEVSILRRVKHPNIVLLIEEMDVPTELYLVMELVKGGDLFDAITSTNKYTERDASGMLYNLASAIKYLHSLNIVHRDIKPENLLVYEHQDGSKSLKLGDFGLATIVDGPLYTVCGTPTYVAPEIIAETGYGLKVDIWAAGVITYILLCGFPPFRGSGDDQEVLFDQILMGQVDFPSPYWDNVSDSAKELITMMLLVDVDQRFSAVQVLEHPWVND
Put plainly: DSF Tm panel. Format: binding. The note with it: 10 μM compound.

The target in a further test is T9, MAPK14A (Homo sapiens, UniProt Q16539).
T9 construct: purchased in-house DSF kinase panel (SGC-style construct names; the trailing letter is the construct ID)
Put plainly: DSF Tm panel. It counts as binding. The note with it: 10 μM compound.

Test [1] addresses T10, SLK (Homo sapiens, UniProt Q9H2G2). Put plainly: DSF Tm panel. Format: binding. The note with it: 10 μM compound. Details: purchased in-house DSF kinase panel (SGC-style construct names; the trailing letter is the construct ID).
The next test deals with T11, MAPK10A (Homo sapiens, UniProt P53779).
T11 construct: purchased in-house DSF kinase panel (SGC-style construct names; the trailing letter is the construct ID)
Nature of the test: DSF Tm panel. The note with it: 10 μM compound. Format: binding.

Another test deals with T12, MAPK1A (Homo sapiens, UniProt P28482).
T12 construct: purchased in-house DSF kinase panel (SGC-style construct names; the trailing letter is the construct ID)
Put plainly: DSF Tm panel. Format: binding. The note with it: 10 μM compound.

The target of another test is T13, DAPK3 (DAPK3A) (Homo sapiens, UniProt O43293).
T13 construct: purchased in-house DSF kinase panel (SGC-style construct names; the trailing letter is the construct ID)
Put plainly: DSF Tm panel. The note with it: 10 μM compound. Format: binding.

Another test deals with RPS6KA1A. Nature of the test: DSF Tm panel. Format: binding. The note with it: 10 μM compound.
The target in the next test is T14, MAP3K5A (Homo sapiens, UniProt Q99683).
T14 construct: purchased in-house DSF kinase panel (SGC-style construct names; the trailing letter is the construct ID)
Put plainly: DSF Tm panel. It counts as binding. To be noted: 10 μM compound.

For test [2], the target named is T10, SLK. Put plainly: NanoBRET target engagement assay. Details: has a greater impact on the full-length protein than on the kinase domains; host or cells: HEK293T (ATCC CRL-3216). To be noted: HEK293T cells. It counts as cell-based. On the technique in general: BRET reads energy transfer from a luciferase to a nearby fluorophore.
The target of a further test is T15, PIM1 (PIM1A) (Homo sapiens, UniProt P11309).
T15 construct: purchased in-house DSF kinase panel (SGC-style construct names; the trailing letter is the construct ID)
Put plainly: DSF Tm panel. Format: binding. The note with it: 10 μM compound.

A further test deals with T16, CAMK2DA (Homo sapiens, UniProt Q13557).
T16 construct: purchased in-house DSF kinase panel (SGC-style construct names; the trailing letter is the construct ID)
Nature of the test: DSF Tm panel. Format: binding. The note with it: 10 μM compound.

A further test has as its target T17, VRK1A (Homo sapiens, UniProt Q99986).
T17 construct: purchased in-house DSF kinase panel (SGC-style construct names; the trailing letter is the construct ID)
T17 sequence (Q99986 1-396): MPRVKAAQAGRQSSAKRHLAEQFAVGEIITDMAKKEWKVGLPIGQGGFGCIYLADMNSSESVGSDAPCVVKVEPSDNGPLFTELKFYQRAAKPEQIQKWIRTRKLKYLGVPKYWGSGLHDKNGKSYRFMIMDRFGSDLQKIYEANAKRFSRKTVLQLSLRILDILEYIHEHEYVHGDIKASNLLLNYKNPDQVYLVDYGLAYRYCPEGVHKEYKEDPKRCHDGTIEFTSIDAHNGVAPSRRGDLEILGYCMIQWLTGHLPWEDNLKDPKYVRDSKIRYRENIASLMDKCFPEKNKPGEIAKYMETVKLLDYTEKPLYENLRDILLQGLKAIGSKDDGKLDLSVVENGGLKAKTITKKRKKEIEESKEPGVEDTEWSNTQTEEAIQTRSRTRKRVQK
Nature of the test: DSF Tm panel. It counts as binding. To be noted: 10 μM compound.

Another test has as its target T18, FGFR2A (Homo sapiens, UniProt P21802).
T18 construct: purchased in-house DSF kinase panel (SGC-style construct names; the trailing letter is the construct ID)
Nature of the test: DSF Tm panel. Format: binding. To be noted: 10 μM compound.

A further test concerns the target T19, STK10 (Homo sapiens, UniProt O94804).
T19 construct: purchased in-house DSF kinase panel (SGC-style construct names; the trailing letter is the construct ID)
Put plainly: PhosphoSens in vitro activity assay. The note with it: ATP 160 μM. Format: biochemical.

The target in a further test is T20, DYRK1AA (Homo sapiens, UniProt Q13627).
T20 construct: purchased in-house DSF kinase panel (SGC-style construct names; the trailing letter is the construct ID)
Nature of the test: DSF Tm panel. Format: binding. The note with it: 10 μM compound.

In the next test the target is T21, SRPK1A (Homo sapiens, UniProt Q96SB4).
T21 construct: purchased in-house DSF kinase panel (SGC-style construct names; the trailing letter is the construct ID)
Nature of the test: DSF Tm panel. Format: binding. To be noted: 10 μM compound.

T5 sequence (Q00532 1-303): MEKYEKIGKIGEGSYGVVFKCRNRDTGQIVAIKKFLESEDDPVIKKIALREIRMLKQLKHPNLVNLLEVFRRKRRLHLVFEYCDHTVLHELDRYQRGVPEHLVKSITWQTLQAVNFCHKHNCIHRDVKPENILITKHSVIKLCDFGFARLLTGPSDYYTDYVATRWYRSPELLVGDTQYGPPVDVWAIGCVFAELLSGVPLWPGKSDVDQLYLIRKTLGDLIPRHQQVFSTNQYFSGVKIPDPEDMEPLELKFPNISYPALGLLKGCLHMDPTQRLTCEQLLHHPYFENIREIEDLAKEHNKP
T14 sequence (Q99683 659-951): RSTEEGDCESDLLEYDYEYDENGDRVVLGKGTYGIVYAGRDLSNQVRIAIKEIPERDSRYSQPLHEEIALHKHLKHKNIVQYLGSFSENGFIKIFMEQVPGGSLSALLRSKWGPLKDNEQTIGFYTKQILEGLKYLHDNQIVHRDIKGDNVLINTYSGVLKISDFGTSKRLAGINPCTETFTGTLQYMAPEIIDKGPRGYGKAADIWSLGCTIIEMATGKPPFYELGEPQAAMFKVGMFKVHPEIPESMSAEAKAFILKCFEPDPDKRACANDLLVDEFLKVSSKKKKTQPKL
T13 sequence (O43293 whole entry): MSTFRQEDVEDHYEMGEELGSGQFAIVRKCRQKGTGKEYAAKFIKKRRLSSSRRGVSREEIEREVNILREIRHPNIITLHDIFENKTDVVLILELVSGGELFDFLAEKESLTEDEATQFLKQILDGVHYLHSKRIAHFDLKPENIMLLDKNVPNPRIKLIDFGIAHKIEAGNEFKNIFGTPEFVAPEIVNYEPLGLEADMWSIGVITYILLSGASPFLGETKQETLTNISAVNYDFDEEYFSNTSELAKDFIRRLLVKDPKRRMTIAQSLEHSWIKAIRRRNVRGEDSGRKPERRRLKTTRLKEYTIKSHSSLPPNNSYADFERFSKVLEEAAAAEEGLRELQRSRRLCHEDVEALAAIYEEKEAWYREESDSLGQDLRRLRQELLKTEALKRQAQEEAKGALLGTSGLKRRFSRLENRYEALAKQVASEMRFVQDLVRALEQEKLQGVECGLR
T3 sequence (P07332 whole entry): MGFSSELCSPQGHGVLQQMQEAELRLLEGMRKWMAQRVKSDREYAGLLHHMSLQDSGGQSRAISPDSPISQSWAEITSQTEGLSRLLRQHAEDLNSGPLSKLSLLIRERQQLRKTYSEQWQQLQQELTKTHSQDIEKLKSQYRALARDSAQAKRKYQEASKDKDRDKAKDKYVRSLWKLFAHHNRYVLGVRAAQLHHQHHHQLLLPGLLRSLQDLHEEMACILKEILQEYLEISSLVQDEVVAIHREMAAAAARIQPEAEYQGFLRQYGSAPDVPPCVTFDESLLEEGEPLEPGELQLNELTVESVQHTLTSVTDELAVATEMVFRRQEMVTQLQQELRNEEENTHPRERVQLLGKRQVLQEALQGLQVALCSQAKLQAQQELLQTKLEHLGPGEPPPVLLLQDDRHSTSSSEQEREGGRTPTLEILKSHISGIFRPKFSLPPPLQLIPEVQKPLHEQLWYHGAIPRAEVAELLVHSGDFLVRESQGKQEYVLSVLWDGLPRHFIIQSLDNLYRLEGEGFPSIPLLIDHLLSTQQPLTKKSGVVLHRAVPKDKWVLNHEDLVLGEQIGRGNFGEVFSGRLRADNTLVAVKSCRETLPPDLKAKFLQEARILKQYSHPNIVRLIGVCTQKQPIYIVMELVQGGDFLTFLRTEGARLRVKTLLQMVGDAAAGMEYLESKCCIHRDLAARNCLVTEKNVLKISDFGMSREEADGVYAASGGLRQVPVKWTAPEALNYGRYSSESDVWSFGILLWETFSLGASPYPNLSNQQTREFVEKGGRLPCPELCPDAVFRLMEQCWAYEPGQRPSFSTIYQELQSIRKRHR
T15 sequence (P11309 whole entry): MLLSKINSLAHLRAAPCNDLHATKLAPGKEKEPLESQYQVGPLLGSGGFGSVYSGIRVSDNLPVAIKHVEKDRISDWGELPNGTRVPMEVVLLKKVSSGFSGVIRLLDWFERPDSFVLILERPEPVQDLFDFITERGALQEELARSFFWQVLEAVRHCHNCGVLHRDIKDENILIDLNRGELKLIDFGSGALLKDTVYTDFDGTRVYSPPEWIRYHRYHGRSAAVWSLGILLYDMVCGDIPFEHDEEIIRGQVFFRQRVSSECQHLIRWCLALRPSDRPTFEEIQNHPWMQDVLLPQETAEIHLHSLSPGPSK
T9 sequence (Q16539 whole entry): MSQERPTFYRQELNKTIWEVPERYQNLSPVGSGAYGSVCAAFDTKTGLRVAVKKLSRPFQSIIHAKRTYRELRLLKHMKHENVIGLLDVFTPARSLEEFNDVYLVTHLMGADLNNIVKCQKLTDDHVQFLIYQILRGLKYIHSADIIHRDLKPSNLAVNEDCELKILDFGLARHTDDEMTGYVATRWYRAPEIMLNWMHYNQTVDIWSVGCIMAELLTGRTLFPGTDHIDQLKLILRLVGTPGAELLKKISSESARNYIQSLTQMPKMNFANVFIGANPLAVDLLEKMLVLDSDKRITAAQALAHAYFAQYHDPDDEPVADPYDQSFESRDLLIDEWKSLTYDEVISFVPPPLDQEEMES
T21 sequence (Q96SB4 80-653): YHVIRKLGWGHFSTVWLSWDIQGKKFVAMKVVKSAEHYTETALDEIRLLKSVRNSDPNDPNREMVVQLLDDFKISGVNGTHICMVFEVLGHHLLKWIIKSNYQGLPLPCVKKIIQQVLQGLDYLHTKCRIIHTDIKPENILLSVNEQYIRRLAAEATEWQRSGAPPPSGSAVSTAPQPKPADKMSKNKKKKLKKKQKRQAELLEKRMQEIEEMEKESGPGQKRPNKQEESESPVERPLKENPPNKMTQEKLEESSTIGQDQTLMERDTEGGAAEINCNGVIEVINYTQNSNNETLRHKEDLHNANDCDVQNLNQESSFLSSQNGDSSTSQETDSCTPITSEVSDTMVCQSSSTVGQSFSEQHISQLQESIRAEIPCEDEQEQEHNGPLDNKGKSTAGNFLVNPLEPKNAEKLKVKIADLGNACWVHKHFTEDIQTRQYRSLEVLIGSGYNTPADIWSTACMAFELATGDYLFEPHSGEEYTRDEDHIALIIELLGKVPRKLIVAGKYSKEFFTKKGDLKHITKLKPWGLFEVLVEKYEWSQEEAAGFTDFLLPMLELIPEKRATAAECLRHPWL
T6 sequence (Q96L34 59-310): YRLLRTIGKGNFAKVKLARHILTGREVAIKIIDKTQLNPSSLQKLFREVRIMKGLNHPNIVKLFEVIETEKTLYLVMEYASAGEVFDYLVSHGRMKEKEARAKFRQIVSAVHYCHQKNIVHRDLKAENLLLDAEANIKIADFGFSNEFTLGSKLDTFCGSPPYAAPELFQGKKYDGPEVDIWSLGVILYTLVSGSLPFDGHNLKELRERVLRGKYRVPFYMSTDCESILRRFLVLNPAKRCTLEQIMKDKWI
T4 sequence (Q9NSY1 38-345): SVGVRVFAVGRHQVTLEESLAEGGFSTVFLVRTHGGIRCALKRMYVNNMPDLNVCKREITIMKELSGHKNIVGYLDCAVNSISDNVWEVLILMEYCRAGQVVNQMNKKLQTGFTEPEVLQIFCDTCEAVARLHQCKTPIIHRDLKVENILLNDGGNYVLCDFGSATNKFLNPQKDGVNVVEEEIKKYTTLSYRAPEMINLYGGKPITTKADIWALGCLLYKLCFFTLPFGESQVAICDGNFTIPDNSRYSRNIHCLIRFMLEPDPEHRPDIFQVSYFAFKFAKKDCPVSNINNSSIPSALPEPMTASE
T18 sequence (P21802 458-770): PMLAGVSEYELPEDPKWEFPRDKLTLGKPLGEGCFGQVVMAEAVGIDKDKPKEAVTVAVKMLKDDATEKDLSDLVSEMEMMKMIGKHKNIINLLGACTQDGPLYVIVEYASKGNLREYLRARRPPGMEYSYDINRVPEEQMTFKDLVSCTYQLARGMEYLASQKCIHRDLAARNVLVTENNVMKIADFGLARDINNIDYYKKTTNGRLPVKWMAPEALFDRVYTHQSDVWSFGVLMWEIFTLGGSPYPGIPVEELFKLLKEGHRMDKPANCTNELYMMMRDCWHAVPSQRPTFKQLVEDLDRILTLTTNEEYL
T7 sequence (P27448 56-307): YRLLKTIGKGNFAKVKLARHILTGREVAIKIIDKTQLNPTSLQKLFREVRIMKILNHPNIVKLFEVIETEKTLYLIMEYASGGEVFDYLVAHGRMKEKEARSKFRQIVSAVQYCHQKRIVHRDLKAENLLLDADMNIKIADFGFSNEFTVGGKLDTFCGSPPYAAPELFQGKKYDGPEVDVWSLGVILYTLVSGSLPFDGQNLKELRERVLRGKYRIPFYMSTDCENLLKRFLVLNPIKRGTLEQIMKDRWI
T11 sequence (P53779 39-402): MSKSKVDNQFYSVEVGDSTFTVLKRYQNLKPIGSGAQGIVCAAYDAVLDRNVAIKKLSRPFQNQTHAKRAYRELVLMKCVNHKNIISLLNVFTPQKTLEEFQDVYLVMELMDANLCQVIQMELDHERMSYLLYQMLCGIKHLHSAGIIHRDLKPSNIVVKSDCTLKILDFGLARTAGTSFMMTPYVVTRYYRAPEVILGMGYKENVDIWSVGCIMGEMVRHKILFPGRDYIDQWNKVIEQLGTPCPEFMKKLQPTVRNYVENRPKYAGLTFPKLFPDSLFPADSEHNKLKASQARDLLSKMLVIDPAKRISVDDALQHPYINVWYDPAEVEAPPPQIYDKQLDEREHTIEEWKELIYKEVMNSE
T16 sequence (Q13557 11-309): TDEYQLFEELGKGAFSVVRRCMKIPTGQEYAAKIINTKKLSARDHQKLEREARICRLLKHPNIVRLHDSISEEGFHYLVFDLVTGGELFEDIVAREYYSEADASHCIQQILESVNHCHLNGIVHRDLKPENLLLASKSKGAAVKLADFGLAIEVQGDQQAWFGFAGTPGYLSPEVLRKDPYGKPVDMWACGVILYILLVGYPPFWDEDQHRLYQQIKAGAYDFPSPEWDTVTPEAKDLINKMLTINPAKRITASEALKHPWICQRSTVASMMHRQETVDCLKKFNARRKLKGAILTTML

In general, ΔTm refers to the change in melting temperature against a reference sample. The EC50 is the concentration at which the effect is half-maximal. The low end stands for greater potency, the high end for weaker potency. Usually IC50 stands for the concentration at which inhibition is half-maximal. Higher therefore signals weaker potency. Regarding `O=C(NCc1ccccc1)Nc1ccc2cc1OCCOCCNc1ccn3ncc-2c3n1` [compound 16], the ΔTm at 10 µM on EPHA2 (EPHA2A) was 0.8 °C; at STK4 (STK4A) it was 4.9 °C; on FESA it was 3 °C; at BMP2KA it was 12.2 °C; on CDKL1A, -0.1 °C; on MARK4A it was 1.7 °C. The ΔTm at 10 µM is 0.7 °C on MARK3A; 0.8 °C on DCAMKL1A; -0.6 °C on MAPK14A; 4.4 °C on SLK [1]; -0.3 °C on MAPK10A; -0.1 °C at MAPK1A. Besides, the ΔTm at 10 µM was 3.4 °C at DAPK3 (DAPK3A); 2 °C on MAP3K5A; 1.2 °C at PIM1 (PIM1A); 0.2 °C at CAMK2DA; -0.4 °C on VRK1A; 4.8 °C on FGFR2A. The ΔTm at 10 µM was 3.8 °C on DYRK1AA and 0 °C at SRPK1A. Moreover, the “ΔTm CDC42BPAA” value in the test with CDC42BPAA was -0,2 °C. Moreover, the “ΔTm RPS6KA1A” value in the test on RPS6KA1A was 1,4 °C. On SLK [2], this compound returned an EC50 of more than 50000 nM. Besides, the IC50 against STK10 turned out to be 880 ± 110 nM.

Turning to `COc1ccc(CNC(=O)Nc2ccc3cc2OCCOCCNc2ccn4ncc-3c4n2)cc1` [compound 31], the ΔTm at 10 µM is 0.4 °C on EPHA2 (EPHA2A); 4.1 °C on STK4 (STK4A); 0.8 °C on FESA; 12 °C on BMP2KA; 0.6 °C on CDKL1A; 2 °C on MARK4A. Further, the thermal shift (ΔTm) at 10 µM at MARK3A came to 0.2 °C; at DCAMKL1A it was 1.4 °C; on MAPK14A it was 1.5 °C; on MAPK10A, 0.7 °C; on MAPK1A, 0.9 °C; at DAPK3 (DAPK3A) it was 1.2 °C. Also, the ΔTm at 10 µM at MAP3K5A was found to be 1.6 °C; on PIM1 (PIM1A), 2 °C; on CAMK2DA, 2.8 °C; on VRK1A, 0.2 °C; at FGFR2A it was 3.1 °C; at DYRK1AA, 0.3 °C. For the same compound, at SRPK1A, the ΔTm at 10 µM came to 0.1 °C. Moreover, the “ΔTm CDC42BPAA” value with CDC42BPAA is 0,0 °C. Further, the IC50 against STK10 is 2740 ± 470 nM.

With `CN1CCN(C(=O)Nc2ccc3cc2OCCOCCNc2ccn4ncc-3c4n2)CC1` [compound 35], the ΔTm at 10 µM at EPHA2 (EPHA2A) is 0.6 °C; at STK4 (STK4A), 0.9 °C; at FESA it was -0.2 °C; at BMP2KA, 11.8 °C; at CDKL1A it was -0.2 °C; at MARK4A, 0.8 °C. The ΔTm at 10 µM on MARK3A is 0.5 °C; at DCAMKL1A, 0.6 °C; on MAPK14A, -0.3 °C; on SLK [1] it was 3.3 °C; at MAPK10A, -0.7 °C; on MAPK1A it was 0.3 °C. Further, the ΔTm at 10 µM at DAPK3 (DAPK3A) is 2.8 °C; on MAP3K5A, 1.7 °C; on PIM1 (PIM1A) it was 2.4 °C; at CAMK2DA it was 0.5 °C; on VRK1A it was -0.1 °C; on FGFR2A, 1.5 °C. The ΔTm at 10 µM on DYRK1AA was -1.5 °C; at SRPK1A, 0.2 °C. For the same compound, in the test on CDC42BPAA, the “ΔTm CDC42BPAA” value is -0,6 °C. The “ΔTm RPS6KA1A” value in the test on RPS6KA1A was 0,7 °C. The same compound had an EC50 at SLK [2] of more than 50000 nM.
